# Source: paper PMC6933707, “Palmitoylethanolamide counteracts substance P-induced mast cell activation in vitro by stimulating diacylglycerol lipase activity” (Journal of Neuroinflammation, 2019)
# What was measured:
# RBL-2H3 cells [1] = test: Histamine release assay (ELISA); assay type: cell-based, rat
# Method: RBL-2H3 cells were plated into 24-well culture dishes at a cell density of 2 × 10^5 cells per well, or into 6-well culture dishes at a cell density of 9 × 10^5 cells per well, for 1 day at 37 °C in 5% CO2 atmosphere. After 1 day, RBL-2H3 cells were stimulated with SP (10 μM) or vehicle (water) and incubated for 15 min at 37 °C in 5% CO2 atmosphere.
# SP-stimulated RBL-2H3 cells (2 × 10^5 cells/well) were treated with PEA (10 μM) or vehicle (methanol) for 15 min at 37 °C in 5% CO2 atmosphere. SP-stimulated RBL-2H3 cells were also treated with a CB2 antagonist, AM630 (0.1 μM), in the presence and absence of PEA (10 μM), or JWH133 (0.1 μM) (a CB2 synthetic agonist), and incubated for the indicated time. SP-stimulated RBL-2H3 cells were also treated with 2-AG (0.1 and 1 μM), or co-treated with PEA (0.1 μM) and 2-AG (0.1 μM), and incubated for the indicated time. SP-stimulated RBL-2H3 cells were also co-treated with PEA (10 μM) and OMDM188 (10 μM) (a DAGL inhibitor), and incubated for the indicated time. After 15 min, the supernatants were collected and the amounts of secreted histamine were measured by using a histamine ELISA kit according to the manufacturer’s instructions (Abnova) and by using a reader GENios Pro (Tecan). Data were expressed as nanograms per milliliter of histamine.
# RBL-2H3 cells [2] = test: Toluidine blue staining, percentage of degranulation; assay type: cell-based, rat
# Method: SP-stimulated RBL-2H3 cells [plated on poly-L-lysine (33 μg/ml) coated slides (Deckglaser, 21 × 26 mm) into 6-well culture dishes at a cell density of 9 × 10^5 cells per well] were treated and incubated as described above for histamine release assay. After 15 min, the cells were fixed with paraformaldehyde at 4% for 20 min and incubated for 3 min with toluidine blue at 0.01% in 3% acetic acid. Subsequently, a 5 min wash in distilled water and dehydration in increasing alcohols (90%, 100%) were performed. Cells were then clarified by treatment with Xylol for 5 min and finally dried slides were mounted with the DPX histogram upright. The cells were observed using a Leica DMI6000 digital microscope, acquired using the Leica DFC 340FX digital camera connected to the microscope and analyzed using the LAS AF 2.2.0 software. Degranulated RBL-2H3 cells were counted and the percentage of degranulation (based on the number of colorable cells) was calculated.
# DAGL-β = molecular target: T1, DAGL-β (Rattus norvegicus, UniProt P0C1S9); test: DAGL-β enzyme activity assay (RBL-2H3 cell membranes); assay type: biochemical; conditions: 25 μM
# T1 construct: constitutive DAGL-β activity in RBL-2H3 cell membranes; endogenous in cells; host or cells: RBL-2H3
# T1 sequence (P0C1S9 1-668): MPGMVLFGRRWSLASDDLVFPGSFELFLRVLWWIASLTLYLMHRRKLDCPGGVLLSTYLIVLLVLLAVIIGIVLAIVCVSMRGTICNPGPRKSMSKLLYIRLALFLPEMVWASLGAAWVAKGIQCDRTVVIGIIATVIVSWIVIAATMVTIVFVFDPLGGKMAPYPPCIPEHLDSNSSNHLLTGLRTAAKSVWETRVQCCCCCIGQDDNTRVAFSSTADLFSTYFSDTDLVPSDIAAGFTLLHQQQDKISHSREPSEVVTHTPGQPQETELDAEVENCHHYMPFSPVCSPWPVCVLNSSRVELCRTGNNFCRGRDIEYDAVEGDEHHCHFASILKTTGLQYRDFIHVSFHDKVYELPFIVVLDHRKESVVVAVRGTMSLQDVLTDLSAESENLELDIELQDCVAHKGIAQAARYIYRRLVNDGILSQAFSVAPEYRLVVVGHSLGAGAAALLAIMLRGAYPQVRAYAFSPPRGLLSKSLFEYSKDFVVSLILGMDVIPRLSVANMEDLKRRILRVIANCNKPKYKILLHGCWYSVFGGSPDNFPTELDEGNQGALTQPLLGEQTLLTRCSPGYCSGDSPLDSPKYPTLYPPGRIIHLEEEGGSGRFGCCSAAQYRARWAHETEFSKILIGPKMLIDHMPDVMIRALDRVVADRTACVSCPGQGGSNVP
# Method: DAGL-β enzyme activity was assessed by using membrane preparations (100 μg of protein) obtained from RBL-2H3 cells, and 1-[^14C]oleoyl-2-arachidonoylglycerol (1.0 mCi/mmol, 50 μM, [40, 41]), as substrate in the presence of vehicle or increasing concentrations of PEA (1–25 μM) in Tris-HCl 50 mM pH 7.4 or in Tris-HCl 50 mM pH 7.4 and CaCl2 10 mM. After the incubation (20 min at 37 °C), the protocol followed the same procedures as above reported for DAGL-α enzyme activity assay. Data were expressed as % of activity of DAGL-β.
# human CB2 receptor = human CB2 receptor (Homo sapiens, UniProt P34972); test: Competition binding assay for CB2 receptors ([3H]-CP-55,940 displacement); design: purchased Perkin Elmer; host or cells: HEK-293
# Sequence of human CB2 receptor (P34972 whole entry): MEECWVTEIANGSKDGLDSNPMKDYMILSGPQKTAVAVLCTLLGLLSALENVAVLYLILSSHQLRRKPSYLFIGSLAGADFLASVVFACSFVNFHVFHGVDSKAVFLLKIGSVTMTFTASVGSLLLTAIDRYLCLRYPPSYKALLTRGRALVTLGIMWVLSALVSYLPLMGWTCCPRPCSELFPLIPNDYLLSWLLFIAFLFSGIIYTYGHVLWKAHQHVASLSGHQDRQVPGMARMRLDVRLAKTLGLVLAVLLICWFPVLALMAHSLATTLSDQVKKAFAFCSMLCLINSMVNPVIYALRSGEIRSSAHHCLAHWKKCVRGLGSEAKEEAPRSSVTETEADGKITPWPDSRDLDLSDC
# Source text: Data were expressed as Ki (μM) and calculated by applying the Cheng-Prusoff equation to the IC50 values for the displacement of the bound radioligand.
# [3] = SP (10 μM)-stimulated cells, compound 0.1 μM, 15 min, vs SP + vehicle
# [4] = SP (10 μM)-stimulated cells, compound 10 μM, 15 min, vs SP + vehicle
# [5] = SP-stimulated cells co-treated with PEA 0.1 μM and 2-AG 0.1 μM, 15 min
# [6] = SP-stimulated cells co-treated with PEA 10 μM and AM630 0.1 μM, vs SP + vehicle or SP + AM630
compound,measurement,setting,value
"CCCCCCCCCCCCCCCC(=O)NCCO [PEA, Palmitoylethanolamide]",histamine release,RBL-2H3 cells [1]; [3],comparable
same,histamine release,RBL-2H3 cells [1]; [4],inhibited the release of histamine
same,histamine release,RBL-2H3 cells [1]; [5],able to reduce
same,histamine release,RBL-2H3 cells [1]; [6],comparable
same,histamine release,"RBL-2H3 cells [1]; substance alone 10 μM, 15 min, vs vehicle-treated cells",No effect
same,number of degranulated cells,RBL-2H3 cells [2]; [3],comparable
same,number of degranulated cells,RBL-2H3 cells [2]; [4],reduced the number of SP-degranulated RBL-2H3 cells
same,number of degranulated cells,RBL-2H3 cells [2]; [5],able to reduce
same,number of degranulated cells,RBL-2H3 cells [2]; [6],comparable
same,number of degranulated cells,"RBL-2H3 cells [2]; substance alone 10 μM, 15 min, vs vehicle",no effect
same,stimulation of the activity of DAGL-β,DAGL-β,33 ± 5.43%
same,"[3H]-CP55,940 displacement","human CB2 receptor; PEA 10 μM per se, WIN55,212-2 10 μM = 100% displacement",33.51 ± 5.28%
same,Ki,"human CB2 receptor; compound alone, displacement of [3H]-CP-55,940, HEK-293 membranes, 90 min 30 °C",> 10 µM
